The nature of the series: Aqueous solubility of torcetrapib. The series is classed as physicochemical. Particulars: water (aqueous), at about 22° C. Here is the method:
The CETP inhibitor may be any compound capable of inhibiting the cholesteryl ester transfer protein. […] Many CETP inhibitors have even lower solubilities (some even less than 0.1 μg/mL), and require dramatic concentration enhancement to be sufficiently bioavailable upon oral dosing for effective plasma concentrations to be reached at practical doses.
CETP inhibitors, in particular torcetrapib, and methods for preparing such compounds are disclosed in detail in U.S. Pat. Nos. 6,197,786 and 6,313,142, in PCT Application Nos. WO 01/40190A1, WO 02/088085A2, and WO 02/088069A2, the disclosures of which are herein incorporated by reference. Torcetrapib has an unusually low solubility in aqueous environments such as the lumenal fluid of the human GI tract. The aqueous solubility of torcetrapib is less than about 0.04 μg/ml. Torcetrapib must be presented to the GI tract in a solubility-improved form in order to achieve a sufficient drug concentration in the GI tract in order to achieve sufficient absorption into the blood to elicit the desired therapeutic effect.

Broadly, the solubility is the dissolved amount per volume that the medium holds. A lower solubility goes with little dissolved substance.

Structures are written as SMILES. A value given as a limit tells only on which side of the number the result lay.

`CCOC(=O)N1c2ccc(C(F)(F)F)cc2[C@@H](N(Cc2cc(C(F)(F)F)cc(C(F)(F)F)c2)C(=O)OC)C[C@H]1CC` [Torcetrapib, [2R,4S]-4-[(3,5-bis-trifluoromethyl-benzyl)-methoxycarbonyl-amino]-2-ethyl-6-trifluoromethyl-3,4-dihydro-2H-quinoline-1-carboxylic acid ethyl ester] showed a solubility of under 0.04 µg/mL.

(Values after US20050038007A1, “Dosage forms of cholesteryl ester transfer protein inhibitors and HMG-CoA reductase inhibitors” (Pfizer Inc, priority 2003, published 2005).)
